For series [1], the system named is Escherichia coli. As to the kind of experiment: Antibacterial activity against Escherichia coli ATCC 25922 assessed as inhibition of bacterial growth incubated for 24 hrs by broth dilution method. Format: functional. On the technique in general: Dilution methods test growth across graded concentrations, often in twofold steps.
Series [2] concerns Staphylococcus aureus. As to the kind of experiment: Antibacterial activity against Staphylococcus aureus ATCC 25923 assessed as inhibition of bacterial growth incubated for 24 hrs by broth dilution method. Format: functional.
Series [3] is described as follows: Hemolytic activity in male Sprague-Dawley rat erythrocytes at 25 uM incubated for 1 hr by absorbance based method relative to control. Format: toxicity, cell-based, Erythrocyte. To be noted: read-out: Activity.
The nature of series [4]: Hemolytic activity in male Sprague-Dawley rat erythrocytes at 50 uM incubated for 1 hr by absorbance based method relative to control. Format: toxicity, cell-based, Erythrocyte. To be noted: read-out: Activity.
Series [5] can be described thus: Hemolytic activity in male Sprague-Dawley rat erythrocytes at 100 uM incubated for 1 hr by absorbance based method relative to control. Format: toxicity, cell-based, Erythrocyte. To be noted: read-out: Activity.
In series [6] the test system is Erythrocyte. Description: Hemolytic activity in male Sprague-Dawley rat erythrocytes assessed as concentration required for 10% hemolysis incubated for 1 hr by absorbance based method. Format: toxicity, cell-based.
Series [7] in a line: Hemolytic activity in male Sprague-Dawley rat erythrocytes assessed as concentration required for 50% hemolysis incubated for 1 hr by absorbance based method. Format: toxicity, cell-based, Erythrocyte.
A short description of series [8]: Selectivity index, ratio of HC10 for hemolytic activity in male Sprague-Dawley rat erythrocytes to MIC for antibacterial activity against Escherichia coli ATCC 25922. Format: toxicity. To be noted: read-out: Selectivity Index.

The structures appear in SMILES notation. ≈ marks a conversion by molar mass, not a printed value. Non-standard residues stand in square brackets, D forms with d. Residues, ends and D or L forms follow the SMILES beside them. *: point of attachment. X1 = NC(=O)[C@H](Cc1c[nH]cn1)NC(=O)CNC(=O)[C@@H](N)CN*; Gly(N(CH2)2(3-indolyl)) = O=C(O)CNCCc1c[nH]c2ccccc12; Nspe = C[C@H](NCC(=O)O)c1ccccc1; Nphe = O=C(O)CNCc1ccccc1; Nlys = NCCCCNCC(=O)O Bounds are passed on as bounds.

For the compound `C[C@@H](c1ccccc1)N(CC(=O)NCC(=O)NC[C@H](N)C(=O)NCC(=O)N[C@@H](Cc1c[nH]cn1)C(N)=O)C(=O)CN(CCCCN)C(=O)CN(C(=O)CN(C(=O)CN(CCCCN)C(=O)CN(C(=O)CN(C(=O)CN(CCCCN)C(=O)CN(C(=O)CN(C(=O)CNCCCCN)[C@@H](C)c1ccccc1)[C@@H](C)c1ccccc1)[C@@H](C)c1ccccc1)[C@@H](C)c1ccccc1)[C@@H](C)c1ccccc1)[C@@H](C)c1ccccc1` (H-[Nlys][Nspe][Nspe][Nlys][Nspe][Nspe][Nlys][Nspe][Nspe][Nlys][Nspe]G-X1), the MIC in series [1] and in series [2] was 12.5 µM (≈ 24.9 µg/mL) in each case. Further, the hemolysis at 1 h, 25 µM in series [3] stood at 2.02%. The hemolysis at 1 h, 50 µM in series [4] was 8.79%. The hemolysis at 1 h, 100 µM in series [5] came to 23.2%. Moreover, in series [6], the HC10 was 51.1 µM. Further, the HC50 (commonly the concentration that lyses half of the red blood cells) at 1 h in series [7] is > 100 µM. In series [8], the selectivity ratio is 4.
In the case of `C[C@@H](c1ccccc1)N(CC(=O)N(CCCCN)CC(=O)N(CC(=O)N(CC(=O)N(CCCCN)CC(=O)N(CC(=O)N(CC(N)=O)Cc1ccccc1)Cc1ccccc1)[C@@H](C)c1ccccc1)[C@@H](C)c1ccccc1)C(=O)CN(C(=O)CN(CCCCN)C(=O)CN(Cc1ccccc1)C(=O)CN(Cc1ccccc1)C(=O)CNCCCCN)[C@@H](C)c1ccccc1` (H-[Nlys][Nphe][Nphe][Nlys][Nspe][Nspe][Nlys][Nspe][Nspe][Nlys][Nphe][Nphe]-NH2), the MIC (usually the lowest concentration that inhibits growth of the organism) turned out to be 6.3 µM (≈ 11.1 µg/mL) in series [1] and 3.1 µM (≈ 5.47 µg/mL) in series [2]. In addition, in series [3], the hemolysis at 1 h, 25 µM is 12.5%. In addition, the hemolysis at 1 h, 50 µM in series [4] stood at 29%. Further, the hemolysis at 1 h, 100 µM in series [5] was determined as 60.9%. The HC10 in series [6] was determined as 22.3 µM. The HC50 at 1 h in series [7] came to 83 µM. Also, the selectivity ratio in series [8] is 3.5.
Regarding `C[C@@H](c1ccccc1)N(CC(N)=O)C(=O)CN(CCCCN)C(=O)CN(C(=O)CN(C(=O)CN(CCCCN)C(=O)CN(C(=O)CN(C(=O)CN(CCCCN)C(=O)CN(C(=O)CN(C(=O)CN(CCCCN)C(=O)CNC(=O)[C@H](Cc1c[nH]cn1)NC(=O)CNC(=O)CN)[C@@H](C)c1ccccc1)[C@@H](C)c1ccccc1)[C@@H](C)c1ccccc1)[C@@H](C)c1ccccc1)[C@@H](C)c1ccccc1)[C@@H](C)c1ccccc1` (H-GGHG[Nlys][Nspe][Nspe][Nlys][Nspe][Nspe][Nlys][Nspe][Nspe][Nlys][Nspe]-NH2), the MIC in series [1] was 12.5 µM (≈ 24.6 µg/mL); in series [2], 6.3 µM (≈ 12.4 µg/mL). In addition, the hemolysis at 1 h, 25 µM in series [3] is 6.5%. Moreover, the hemolysis at 1 h, 50 µM in series [4] stood at 22.4%. In series [5], the hemolysis at 1 h, 100 µM came out at 49.8%. For the same compound, the HC10 in series [6] was determined as 27.7 µM. For the same compound, the HC50 at 1 h in series [7] was 100 µM. The selectivity ratio in series [8] turned out to be 2.2.
With `C[C@@H](c1ccccc1)N(CC(=O)N(CCCCN)CC(=O)N(CC(=O)N(CC(=O)N(CCCCN)CC(=O)N(CC(=O)N(CC(=O)N(CCCCN)CC(=O)N(CC(=O)N(CC(N)=O)Cc1ccccc1)Cc1ccccc1)Cc1ccccc1)Cc1ccccc1)Cc1ccccc1)Cc1ccccc1)C(=O)CN(Cc1ccccc1)C(=O)CN(CCCCN)C(=O)[C@H](Cc1c[nH]cn1)NC(=O)CNC(=O)CN` (H-GGH[Nlys][Nphe][Nspe][Nlys][Nphe][Nphe][Nlys][Nphe][Nphe][Nlys][Nphe][Nphe]-NH2), the MIC in series [1] is 25 µM (≈ 49.3 µg/mL); in series [2], > 25 µM. The hemolysis at 1 h, 25 µM in series [3] is -0.71%. Further, in series [4], the hemolysis at 1 h, 50 µM was -0.22%. Further, in series [5], the hemolysis at 1 h, 100 µM stood at 0.92%. In addition, the HC10 in series [6] is > 100 µM. In addition, the HC50 at 1 h in series [7] is > 100 µM.
For the compound `C[C@@H](c1ccccc1)N(CC(=O)N(CCCCN)CC(=O)N(CC(=O)N(CC(=O)N(CCCCN)CC(=O)N(CC(=O)N(CC(=O)NC[C@H](N)C(=O)NCC(=O)N[C@@H](Cc1c[nH]cn1)C(N)=O)Cc1ccccc1)Cc1ccccc1)[C@@H](C)c1ccccc1)[C@@H](C)c1ccccc1)C(=O)CN(C(=O)CN(CCCCN)C(=O)CN(Cc1ccccc1)C(=O)CN(Cc1ccccc1)C(=O)CNCCCCN)[C@@H](C)c1ccccc1` (H-[Nlys][Nphe][Nphe][Nlys][Nspe][Nspe][Nlys][Nspe][Nspe][Nlys][Nphe][Nphe]-X1), the MIC in series [1] was > 25 µM; in series [2] it was 25 µM (≈ 51.1 µg/mL). The hemolysis at 1 h, 25 µM in series [3] came out at 0.66%. Moreover, the hemolysis at 1 h, 50 µM in series [4] was 2.32%. Besides, the hemolysis at 1 h, 100 µM in series [5] amounted to 7.73%. Further, in series [6], the HC10 is > 100 µM. Besides, the HC50 at 1 h in series [7] was > 100 µM.
Turning to `C[C@@H](c1ccccc1)N(CC(=O)N(CC(=O)N(CCCCN)CC(=O)N(CC(=O)N(CC(=O)N(CCCCN)CC(=O)N(CC(=O)N(CC(=O)N(CCCCN)CC(=O)N(CC(=O)N(CC(N)=O)Cc1ccccc1)Cc1ccccc1)Cc1ccccc1)Cc1ccccc1)Cc1ccccc1)Cc1ccccc1)Cc1ccccc1)C(=O)CN(CCCCN)C(=O)CNC(=O)[C@H](Cc1c[nH]cn1)NC(=O)CNC(=O)CN` (H-GGHG[Nlys][Nspe][Nphe][Nlys][Nphe][Nphe][Nlys][Nphe][Nphe][Nlys][Nphe][Nphe]-NH2), the MIC in series [1] is 25 µM (≈ 50.7 µg/mL); in series [2], > 25 µM. In series [3], the hemolysis at 1 h, 25 µM was -0.43%. Moreover, the hemolysis at 1 h, 50 µM in series [4] came out at 0.18%. For the same compound, the hemolysis at 1 h, 100 µM in series [5] turned out to be 1.36%. Also, the HC10 in series [6] is > 100 µM. Also, the HC50 at 1 h in series [7] was > 100 µM.
Regarding `C[C@@H](c1ccccc1)N(CC(=O)NC[C@H](N)C(=O)NCC(=O)N[C@@H](Cc1c[nH]cn1)C(N)=O)C(=O)CN(CCCCN)C(=O)CN(CCCCN)C(=O)CN(C(=O)CN(C(=O)CN(CCCCN)C(=O)CN(C(=O)CN(C(=O)CN(CCCCN)C(=O)CN(CCc1c[nH]c2ccccc12)C(=O)CN(CCc1c[nH]c2ccccc12)C(=O)CNCCCCN)[C@@H](C)c1ccccc1)[C@@H](C)c1ccccc1)[C@@H](C)c1ccccc1)[C@@H](C)c1ccccc1` (H-[Nlys][Gly(N(CH2)2(3-indolyl))][Gly(N(CH2)2(3-indolyl))][Nlys][Nspe][Nspe][Nlys][Nspe][Nspe][Nlys][Nlys][Nspe]-X1), the MIC is > 25 µM in series [1] and 6.3 µM (≈ 13.5 µg/mL) in series [2]. In series [3], the hemolysis at 1 h, 25 µM is 4.93%. For the same compound, the hemolysis at 1 h, 50 µM in series [4] was 6.1%. In addition, the hemolysis at 1 h, 100 µM in series [5] came to 5.26%. For the same compound, the HC10 in series [6] was > 100 µM. Also, the HC50 at 1 h in series [7] was > 100 µM.
Regarding `C[C@@H](c1ccccc1)N(CC(=O)N(CCCCN)CC(=O)N(CCc1c[nH]c2ccccc12)CC(=O)N(CCc1c[nH]c2ccccc12)CC(=O)NC[C@H](N)C(=O)NCC(=O)N[C@@H](Cc1c[nH]cn1)C(N)=O)C(=O)CN(CCCCN)C(=O)CN(CCCCN)C(=O)CN(C(=O)CN(C(=O)CN(CCCCN)C(=O)CN(C(=O)CN(C(=O)CNCCCCN)[C@@H](C)c1ccccc1)[C@@H](C)c1ccccc1)[C@@H](C)c1ccccc1)[C@@H](C)c1ccccc1` (H-[Nlys][Nspe][Nspe][Nlys][Nspe][Nspe][Nlys][Nlys][Nspe][Nlys][Gly(N(CH2)2(3-indolyl))][Gly(N(CH2)2(3-indolyl))]-X1), the values for the MIC in series [1] and in series [2] were > 25 µM and 6.3 µM (≈ 13.5 µg/mL), respectively. In series [3], the hemolysis at 1 h, 25 µM was 3.83%. The hemolysis at 1 h, 50 µM in series [4] worked out at 4.23%. For the same compound, the hemolysis at 1 h, 100 µM in series [5] is 3.38%. Further, the HC10 in series [6] was > 100 µM. Besides, in series [7], the HC50 at 1 h is > 100 µM.

The record behind these values is ChEMBL document CHEMBL5584354, “Impact of Conjugation of the Reactive Oxygen Species (ROS)-Generating Catalytic Moiety with Membrane-Active Antimicrobial Peptoids: Promoting Multitarget Mechanism and Enhancing Selectivity” (J Med Chem, 2024).
